The results in this text go back to article PMC12751057, “The energy landscape of N-ribosidic bond cleavage catalysed by 2′-deoxynucleoside 5′-phosphate N-hydrolase 1” (Biochemical Journal, 2025).

What is called Ki is a measure of affinity in units of concentration, obtained from inhibition or displacement. A high value points to weaker binding.

Assay [1] concerns the target T1, 2′-deoxynucleoside 5′-phosphate N-hydrolase 1 (HsDNPH1) (Homo sapiens, UniProt O43598, E104Q).
T1 construct: gene DNPH1
T1 sequence (O43598 2-174 E104Q): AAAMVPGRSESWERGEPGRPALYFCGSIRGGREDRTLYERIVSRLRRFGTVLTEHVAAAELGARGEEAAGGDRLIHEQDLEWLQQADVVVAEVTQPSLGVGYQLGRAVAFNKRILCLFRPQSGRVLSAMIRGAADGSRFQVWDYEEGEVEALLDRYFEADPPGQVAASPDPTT
Description: ITC; also stopped-flow UV binding kinetics (KD app […]) and differential UV spectroscopy. A general note: ITC needs no label: the signal is the heat of the interaction.

In assay [2] the target is T2, 2′-deoxynucleoside 5′-phosphate N-hydrolase 1 (HsDNPH1) (Homo sapiens, UniProt O43598).
T2 construct: gene DNPH1
T2 sequence (O43598 2-174): T1 sequence (O43598 2-174 E104Q) with Q103E
Description: single-turnover stopped-flow UV kinetics, k2/k1 ratio from global fit; steady-state hydrolysis. The assay is classed as biochemical.

Assay [3] deals with T3, 2′-deoxynucleoside 5′-phosphate N-hydrolase 1 (HsDNPH1) (Homo sapiens, UniProt O43598, E55Q).
T3 construct: gene DNPH1
T3 sequence (O43598 2-174 E55Q): T1 sequence (O43598 2-174 E104Q) with E54Q, Q103E
The assay can be described thus: stopped-flow burst and single-turnover kinetics of the purified variant (turnover, k burst). The assay is classed as biochemical.

Assay [4] deals with T2, 2′-deoxynucleoside 5′-phosphate N-hydrolase 1 (HsDNPH1). Description: steady-state UV inhibition assay, competitive fit. The format is biochemical.

Structures are written as SMILES. Changes are numbered by the printed parent chain.

Turning to `O=c1[nH]c(=O)n([C@H]2C[C@H](O)[C@@H](COP(=O)(O)O)O2)cc1CO` [5hmdUMP, 5-hydroxymethyl-2′-deoxyuridine 5′-monophosphate], the Kd was 1.6 ± 0.4 µM in assay [1] and 2.36 µM in assay [2]. This compound also gave a rate constant in assay [3] of 0.270 ± 0.001 s⁻¹.

Turning to `O=P(O)(O)OC[C@H]1OC(O)[C@H](O)[C@@H]1O` (stereo partly shown) [ribose 5-phosphate], the affinity in assay [4] corresponds to a Ki of 6900 ± 800 µM.
